From US10377709B2, “Carboxamide derivatives and the use thereof as medicaments for the treatment of hepatitis B” (Janssen Sciences Ireland UC, priority 2013, dated 2019) come the findings set out here.

pEC50: −log10 of the molar value.

Data set [1] relates to HepG2 cells. The data set is described as follows: Cytotoxicity in HepG2 cells (Resazurin assay). The format is cell-based. The settings on record: incubated 4 days, viability by Resazurin assay. In general terms: Alamar Blue is a resazurin reagent that responds to reducing activity.
Data set [2] relates to HBV. The data set is described as follows: Anti-HBV activity in HepG2.117 inducible HBV producing cell line (intracellular HBV DNA, realtime PCR). The format is cell-based, Hepatitis B virus. The following applies: HepG2.117 cells (Tet-off), 3 days of treatment, intracellular HBV DNA by realtime PCR.
For data set [3], the system named is HBV. Put plainly: Anti-HBV activity in HepG2.2.15 stable transfected cell line (HBV DNA from secreted virions, realtime PCR). The following applies: HepG2.2.15 cells, 6 days of treatment, HBV DNA from secreted virions by realtime PCR. The format is cell-based, Hepatitis B virus.
Data set [4] is described as follows: Cytotoxicity in HepG2 cells (Resazurin assay). The format is cell-based. The settings on record: human, incubated 4 days, viability by Resazurin assay.
[5] abbreviates: Hepatitis B virus, HepG2.117, 72 h.
Where [6] appears, read: Hepatitis B virus, HepG2.2.15, 144 h.

A word on the CC50: it is the concentration giving 50% cytotoxicity. Read a high CC50 as better tolerance by the cells. One may read the pEC50 as the negative decadic logarithm of the EC50, by convention in mol/L. The low end stands for a high EC50, the high end for a low EC50. With `Cc1cc(NC(=O)C2CC(C)N(C(=O)C(=O)NC3(C)COC3)C2)ccc1F` (single isomer, unassigned) [Compound 17b, N-(4-fluoro-3-methylphenyl)-5-methyl-1-(2-((3-methyloxetan-3-yl)amino)-2-oxoacetyl)pyrrolidine-3-carboxamide], the cytotoxic concentration (CC50) in data set [1] was > 25000 nM. Further, the pEC50 is 6.10 in data set [2] and 6.04 in data set [3].
As to `Cc1cc(NC(=O)C2CC(C)N(C(=O)C(=O)NC3(C)COC3)C2)ccc1F` (single isomer, unassigned) [Compound 17c, N-(4-fluoro-3-methylphenyl)-5-methyl-1-(2-((3-methyloxetan-3-yl)amino)-2-oxoacetyl)pyrrolidine-3-carboxamide], the CC50 in data set [1] is > 25000 nM. Moreover, the pEC50 in data set [2] and in data set [3] was < 6.00 each time.
For `Cc1cc(NC(=O)C2CC(C)N(C(=O)C(=O)NC3(C)COC3)C2)ccc1F` (single isomer, unassigned) [Compound 17d, N-(4-fluoro-3-methylphenyl)-5-methyl-1-(2-((3-methyloxetan-3-yl)amino)-2-oxoacetyl)pyrrolidine-3-carboxamide], the CC50 in data set [1] was > 25000 nM. Further, the pEC50 is 7.49 in data set [2] and 7.15 in data set [3].
Take `CC(C)NC(=O)C(=O)N1CCC(C(=O)Nc2cc(F)c(F)c(Cl)c2)[C@@H]1C` (single isomer, unassigned) [Compound 29b]: the CC50 in data set [1] is > 25000 nM. Moreover, the negative logarithm of the EC50 (pEC50) in data set [2] and in data set [3] was < 6.00 in each case.
As for `CC1C(C(=O)Nc2ccc(F)c(Cl)c2F)CCCN1C(=O)C(=O)N[C@H](C)C(F)(F)F` (single isomer, unassigned) [Compound 35b], in data set [1], the CC50 is > 25000 nM. Also, the pEC50 in data set [2] was 6.32; in data set [3] it was 6.71.
Consider `CC1C(C(=O)Nc2ccc(F)c(Cl)c2F)CCCN1C(=O)C(=O)N[C@H](C)C(F)(F)F` (single isomer, unassigned) [Compound 35c], for which, in data set [1], the CC50 was > 25000 nM. The pEC50 in data set [2] and in data set [3] was < 6.00 throughout.
For `CC1C(C(=O)Nc2ccc(F)c(Cl)c2F)CCCN1C(=O)C(=O)N[C@H](C)C(F)(F)F` (single isomer, unassigned) [Compound 35d], in data set [1], the CC50 was > 25000 nM. Further, the negative-log EC50 (pEC50) in data set [2] and in data set [3] was < 6.00 in each case.
For `CC(C)(C)NC(=O)C(=O)N1CC[C@H](C(=O)Nc2ccc(F)c(C#N)c2)C1` [Compound 20, (3S)-1-[2-(tert-butylamino)-2-oxo-acetyl]-N-(3-cyano-4-fluorophenyl)-pyrrolidine-3-carboxamide], in data set [4], the cytotoxic concentration (CC50) at 4 days was > 25000 nM. In addition, the negative logarithm of the EC50 (pEC50) in data set [2] (setting [5]) was 6.19; in data set [3] (setting [6]), 6.54.
`C[C@@H](NC(=O)C(=O)N1CC[C@H](C(=O)Nc2ccc(F)c(Cl)c2F)C1)C(F)(F)F` [Compound 21, (3S)-N-(3-chloro-2,4-difluoro-phenyl)-1-[2-oxo-2-[[(1R)-2,2,2-trifluoro-1-methyl-ethyl]amino]acetyl]pyrrolidine-3-carboxamide]: the half-maximal cytotoxic concentration (CC50) at 4 days in data set [4] is > 25000 nM. Also, the pEC50 in data set [2] (setting [5]) and in data set [3] (setting [6]) was 7.20 in each case.
As to `C[C@@H](NC(=O)C(=O)N1CC[C@H](C(=O)Nc2ccc(F)c(C#N)c2)C1)C(F)(F)F` [Compound 22, (3S)-N-(3-cyano-4-fluoro-phenyl)-1-[2-oxo-2-[[(1R)-2,2,2-trifluoro-1-methyl-ethyl]amino]acetyl]pyrrolidine-3-carboxamide], the cytotoxic concentration (CC50) at 4 days in data set [4] is > 25000 nM. Besides, the pEC50 in data set [2] (setting [5]) was 6.89; in data set [3] (setting [6]), 6.96.
In the case of `CC(C)NC(=O)C(=O)N1CC[C@H](C(=O)Nc2ccc(F)c(C(F)(F)F)c2)C1` [Compound 23, (3S)-N-[4-fluoro-3-(trifluoromethyl)phenyl]-1-[2-(isopropylamino)-2-oxo-acetyl]pyrrolidine-3-carboxamide], the CC50 at 4 days in data set [4] is > 25000 nM. Further, the pEC50 was 6.24 in data set [2] (setting [5]) and 6.42 in data set [3] (setting [6]).
For `CC[C@@H](C)NC(=O)C(=O)N1CC[C@H](C(=O)Nc2ccc(F)c(C(F)(F)F)c2)C1` [Compound 24, (3S)-N-[4-fluoro-3-(trifluoromethyl)phenyl]-1-[2-[[(1R)-1-methylpropyl]-amino]-2-oxo-acetyl]pyrrolidine-3-carboxamide], in that order: > 25000 nM, 6.42 and 6.87.
The like results for `O=C(NC1(C(F)(F)F)CC1)C(=O)N1CC[C@H](C(=O)Nc2ccc(F)c(Cl)c2)C1` [Compound 25, (3S)-N-(3-chloro-4-fluoro-phenyl)-1-[2-oxo-2-[[1-(trifluoromethyl)cyclopropyl]amino]acetyl]pyrrolidine-3-carboxamide] were, in that order, > 25000 nM, 7.51 and 7.38.
The like results for `C[C@H](NC(=O)C(=O)N1CC[C@H](C(=O)Nc2ccc(F)c(Cl)c2)C1)C(F)(F)F` [Compound 26, (3S)-N-(3-chloro-4-fluoro-phenyl)-1-[2-oxo-2-[[(1S)-2,2,2-trifluoro-1-methyl-ethyl]amino]acetyl]pyrrolidine-3-carboxamide] were, in that order, > 25000 nM, 6.91 and 6.77.
`CC(C)NC(=O)C(=O)N1CCC(C(=O)Nc2ccc(F)c(C#N)c2)[C@@H]1C` (stereo partly drawn) [Compound 27, (2S)-N-(3-cyano-4-fluoro-phenyl)-1-[2-(isopropylamino)-2-oxo-acetyl]-2-methyl-pyrrolidine-3-carboxamide]: the CC50 at 4 days in data set [4] is > 25000 nM. Moreover, the figures for the pEC50 in data set [2] (setting [5]) and in data set [3] (setting [6]) were 6.90 and 6.92, respectively.
The like results for `CC(C)NC(=O)C(=O)N1CCC(C(=O)Nc2ccc(F)c(Cl)c2F)[C@@H]1C` (stereo partly drawn) [Compound 28, (2S)-N-(3-chloro-2,4-difluoro-phenyl)-1-[2-(isopropylamino)-2-oxo-acetyl]-2-methyl-pyrrolidine-3-carboxamide] were, in that order, > 25000 nM, 7.08 and 7.30.
For `CC(C)NC(=O)C(=O)N1CCC(C(=O)Nc2cc(F)c(F)c(Cl)c2)[C@@H]1C` (stereo partly drawn) [Compound 29, (2S)-N-(3-chloro-4,5-difluoro-phenyl)-1-[2-(isopropylamino)-2-oxo-acetyl]-2-methyl-pyrrolidine-3-carboxamide], in that order: > 25000 nM, 7.32 and 7.74.
The like results for `C[C@H](NC(=O)C(=O)N1CC[C@H](C(=O)Nc2ccc(F)c(C(F)F)c2)C1)C(F)(F)F` [Compound 30, (3S)-N-[3-(difluoromethyl)-4-fluoro-phenyl]-1-[2-oxo-2-[[(1 S)-2,2,2-trifluoro-1-methyl-ethyl]amino]acetyl]pyrrolidine-3-carboxamide] were, in that order, > 25000 nM, 6.90 and 6.79.
In the case of `CC(C)NC(=O)C(=O)N1CC[C@H](C(=O)Nc2ccc(F)c(C(F)F)c2)C1` [Compound 31, (3S)-N-[3-(difluoromethyl)-4-fluoro-phenyl]-1-[2-(isopropylamino)-2-oxo-acetyl]pyrrolidine-3-carboxamide], the CC50 at 4 days in data set [4] is > 25000 nM. The values for the negative logarithm of the EC50 (pEC50) in data set [2] (setting [5]) and in data set [3] (setting [6]) were 6.84 and 6.87, respectively.
By melting point is commonly meant the temperature, or range, at which the solid turns liquid. In turn, `C[C@@H](NC(=O)C(=O)N1CC[C@H](C(=O)Nc2cc(F)c(F)c(F)c2)C1)C(F)(F)F` [Compound 32, (3S)-1-[2-oxo-2-[[(1R)-2,2,2-trifluoro-1-methyl-ethyl]amino]acetyl]-N-(3,4,5-trifluorophenyl)pyrrolidine-3-carboxamide] registered a melting point of 197.3 °C. Besides, the cytotoxic concentration (CC50) at 4 days in data set [4] was > 25000 nM. Besides, in data set [2] (setting [5]), the pEC50 was 7.28.
